Values quoted from earlier work as cited in the Kinase Knowledgebase extract (Sharma et al. 2016).

Biological target: EGFR (UniProt P00533)
Experiment: EGFr Inhibition

Sequence of EGFR (P00533 whole entry, looked up): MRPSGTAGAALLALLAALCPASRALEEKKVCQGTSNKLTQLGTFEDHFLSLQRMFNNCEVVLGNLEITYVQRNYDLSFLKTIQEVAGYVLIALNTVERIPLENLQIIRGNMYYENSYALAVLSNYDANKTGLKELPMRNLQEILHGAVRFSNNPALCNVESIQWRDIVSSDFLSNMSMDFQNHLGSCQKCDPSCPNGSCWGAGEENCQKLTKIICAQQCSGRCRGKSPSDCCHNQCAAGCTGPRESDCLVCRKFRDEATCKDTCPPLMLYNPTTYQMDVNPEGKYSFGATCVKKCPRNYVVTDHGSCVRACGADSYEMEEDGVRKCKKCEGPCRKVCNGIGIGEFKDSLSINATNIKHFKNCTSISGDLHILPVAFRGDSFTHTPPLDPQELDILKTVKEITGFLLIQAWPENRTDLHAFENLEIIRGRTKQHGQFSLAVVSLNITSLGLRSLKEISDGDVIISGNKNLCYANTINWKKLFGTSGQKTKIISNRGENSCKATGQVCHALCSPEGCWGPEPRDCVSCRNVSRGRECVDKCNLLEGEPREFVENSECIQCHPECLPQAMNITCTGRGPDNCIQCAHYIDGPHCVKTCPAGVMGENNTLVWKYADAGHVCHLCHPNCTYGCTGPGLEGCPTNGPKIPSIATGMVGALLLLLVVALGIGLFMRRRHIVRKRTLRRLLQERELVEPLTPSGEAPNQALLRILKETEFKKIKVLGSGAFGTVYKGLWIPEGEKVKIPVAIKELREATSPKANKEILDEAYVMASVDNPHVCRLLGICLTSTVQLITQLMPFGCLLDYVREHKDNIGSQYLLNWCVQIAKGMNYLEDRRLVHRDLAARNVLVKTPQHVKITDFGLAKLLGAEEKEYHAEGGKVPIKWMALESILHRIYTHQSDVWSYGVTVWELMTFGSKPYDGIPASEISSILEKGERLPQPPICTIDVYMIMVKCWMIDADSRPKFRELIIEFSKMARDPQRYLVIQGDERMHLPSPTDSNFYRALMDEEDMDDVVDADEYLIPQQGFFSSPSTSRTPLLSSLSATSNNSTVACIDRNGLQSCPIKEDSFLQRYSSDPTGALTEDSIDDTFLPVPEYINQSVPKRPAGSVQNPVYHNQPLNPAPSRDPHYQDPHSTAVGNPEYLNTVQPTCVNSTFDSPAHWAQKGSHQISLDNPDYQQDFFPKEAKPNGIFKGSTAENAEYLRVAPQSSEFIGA

In order of rising IC50:
1. CC(C)(C)OC(=O)Nc1ccc(Nc2n[nH]c3ncnc(Nc4cccc(Cl)c4)c23)cc1  15000 nM
2. Cn1c(=O)c(-c2c(Cl)cccc2Cl)cc2cnc(NC3CCCCC3)nc21  75000 nM
3. Cn1c(=O)c(-c2c(Cl)cccc2Cl)cc2cnc(NCc3ccccc3)nc21  75000 nM
4. CCOC(=O)c1ccc(Nc2ncc3cc(-c4c(Cl)cccc4Cl)c(=O)n(C)c3n2)cc1  75000 nM

Biological target: CDK2 (human) (UniProt P24941)
Experiment: Enzyme Assay

In order of falling IC50:
1. CNS(=O)(=O)Cc1ccc(NC=C2C(=O)Nc3ccc4ncsc4c32)cc1  26.3 nM
2. NS(=O)(=O)c1ccc(NN=C2C(=O)Nc3ccc(C(=O)NCCn4ccnc4)cc32)cc1  25.1 nM
3. O=C1Nc2ccccc2C1=CNc1ccc(-c2cnco2)c2c1CS(=O)(=O)C2  8.91 nM
4. O=C1Nc2ccc3ncsc3c2C1=CNc1ccc(S(=O)(=O)NCO)cc1  4.68 nM
5. CC(C)Oc1cccc2c1C(=NNc1ccc(S(N)(=O)=O)cc1)C(=O)N2  3.31 nM
